Values of other authors, collected in EP2525785B1, “SUSTAINED RELEASE TABLET FORMULATION CONTAINING ETODOLAC” (Turgut Laclari A.S., priority 2010, dated 2011).

Details: below pH 3

Structure (SMILES): CCc1cccc2c3c([nH]c12)C(CC)(CC(=O)O)OCC3 (stereo not shown) [Etodolac, 2-(1,8-diethyl-4,9-dihydro-3H-pyrano[3,4-b]indole-1-il)acetic acid]
- solubility: low solubility
